{"source": "patent US8114892B2", "about": "“Methods and compositions for the treatment of Parkinson's Disease” (The McLean Hospital Corporation, priority 2006, dated 2012)", "type_in_all_cases": "cell-based", "key": {"Nurr1": {"target": "T1, Nurr1 (Homo sapiens, UniProt P43354)", "T1 construct": "effector plasmid containing the Nurr1 gene; expressed in transfected cells; host or cells: SK-N-BE(2)C human neuroblastoma cells, transient transfection", "T1 sequence (P43354 whole entry)": "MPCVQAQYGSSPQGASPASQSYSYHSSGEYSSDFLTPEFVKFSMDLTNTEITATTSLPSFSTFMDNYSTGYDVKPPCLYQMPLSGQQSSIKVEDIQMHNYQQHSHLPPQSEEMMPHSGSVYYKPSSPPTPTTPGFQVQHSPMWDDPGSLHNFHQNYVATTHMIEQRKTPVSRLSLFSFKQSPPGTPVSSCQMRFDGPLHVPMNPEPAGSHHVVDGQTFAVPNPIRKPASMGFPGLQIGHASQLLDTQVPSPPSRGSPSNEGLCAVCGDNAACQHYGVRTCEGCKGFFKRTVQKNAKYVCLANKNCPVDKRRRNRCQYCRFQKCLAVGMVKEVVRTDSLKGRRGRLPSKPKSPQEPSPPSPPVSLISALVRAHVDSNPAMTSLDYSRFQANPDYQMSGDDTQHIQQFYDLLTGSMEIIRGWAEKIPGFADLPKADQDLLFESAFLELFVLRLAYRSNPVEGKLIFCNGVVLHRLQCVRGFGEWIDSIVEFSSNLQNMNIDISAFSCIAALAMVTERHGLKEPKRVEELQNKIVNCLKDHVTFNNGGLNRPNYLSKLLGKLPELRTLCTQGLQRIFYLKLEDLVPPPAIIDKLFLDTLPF", "test": "Primary screening: Nurr1 effector with 2.6-TH promoter firefly luciferase reporter, transient transfection in SK-N-BE(2)C cells", "details": "incubation for eighteen hours; for Hit identification in repeated primary screening (luciferase activity): pcDNA-Nurr1 construct", "method": "FIG. 5A is a chart showing preliminary screening data with a small chemical library. Transiently expressed Nurr1 activity in SK-N-BE(2)C cells was measured by luciferase activity with 2.6-TH promoter after incubation with each compound for eighteen hours. […] Each column has eight different chemical compounds. FIG. 5B is a chart showing further preliminary screening data with a small chemical library. Transiently expressed Nurr1 activity in SK-N-BE(2)C cells was measured by luciferase activity with 2.6-TH promoter after incubation with each compound for eighteen hours. […] Each column has eight different chemical compounds.\nTransiently expressed Nurr1 activity in SK-N-BE(2)C cells was measured by luciferase activity after incubation of each compound with the pcDNA-Nurr1 construct for eighteen hours.\nA cell-based system exploiting Nurr1's activation of TH was created in order to develop an assay for identification of Nurr1-activating compounds. […] In addition, a transient transfection was selected, rather than using stable cell-line transfection, to favor the maximum responsiveness of compounds to the reporter gene in order to detect low-affinity hit chemicals in the first screening. Another parameter considered was the selection of short-sized natural TH promoters with all essential NBRE (Nurr1-binding)-like motifs rather than one specific kind of NBRE-motif, based on the assumption that the natural promoter generates closer biological screening condition than artificially copied promoter and the false positive chemicals due to the interaction of other unrelated transcription factors can be easily ruled out by the effective secondary screening method.\nTo explore this new Nurr1 cell based assay system, several combinations of variable parameters, including effector gene promoter, internal control gene promoter, TH promoter size, promoter of internal control gene, transient transfection condition, serum concentration, and DMSO effect were tried. […]"}, "GAL4 DBD-Nurr1 LBD": {"target": "T2, GAL4 DBD-Nurr1 LBD (Homo sapiens, UniProt P43354)", "T2 construct": "expressed in transfected cells; host or cells: SK-N-BE(2)C cells, transient transfection", "T2 sequence (P43354 360-595 limits assumed)": "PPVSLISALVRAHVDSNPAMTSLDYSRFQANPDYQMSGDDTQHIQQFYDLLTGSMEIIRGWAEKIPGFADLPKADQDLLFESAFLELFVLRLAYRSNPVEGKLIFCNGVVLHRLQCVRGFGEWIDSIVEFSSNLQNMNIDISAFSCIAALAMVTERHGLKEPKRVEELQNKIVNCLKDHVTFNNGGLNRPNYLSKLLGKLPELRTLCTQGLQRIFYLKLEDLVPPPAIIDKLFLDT", "T2 sequence (P04386 1-147 partner limits assumed)": "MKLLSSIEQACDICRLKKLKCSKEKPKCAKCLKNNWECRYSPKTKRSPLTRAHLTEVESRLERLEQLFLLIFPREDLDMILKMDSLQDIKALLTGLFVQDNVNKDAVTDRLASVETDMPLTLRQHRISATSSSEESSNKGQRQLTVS", "test": "Secondary screening: GAL4-DBD construct fused with Nurr1-LBD, luciferase reporter in SK-N-BE(2)C cells", "details": "incubation for eighteen hours", "method": "FIG. 7 includes a chart showing secondary screening data with primary hit chemicals. Transiently expressed Nurr1 activity in SK-N-BE(2)C cells was measured by luciferase activity after incubation of each compound with GAL4-DBD construct fused with Nurr1-LBD for eighteen hours. […] Also shown is a schematic representation of the GAL4-DBD-Nurr1-LBD fusion construct activating the firefly luciferase reporter gene.\nAs a secondary screening system, GAL4 DNA binding domain (DBD) constructs were used, which separately fused whole Nurr1, Nurr1-ligand binding domain (LBD), or Nurr1-DNA binding domain to the yeast GAL4 DBD. […] 6-MP, regulating Nurr1 through a region in the amino terminus, was used as a negative control in this experiment."}, "[1]": {"tested_on": "mouse ES cell-derived neurons (ES cell lines D3 and J1)", "test": "Dopaminergic neuronal differentiation of ES cells in vitro (5-stage method), TH+/Tuj1+ immunostaining", "details": "2 uM added at day five of the ES-derived neuronal stage for four days", "from_the_text": "FIG. 10A is a pair of photos showing embryonic stem (ES) cell-derived neurons subjected to an indirect immunohistochemical assay (TH+/Tuj1+ staining). ES-derived neurons were immunolabeled with anti-β-tubulin III and anti-TH. Superposition of both proteins under a fluorescent microscope is shown in white. DMSO was used as a control.\nFor in vitro differentiation of ES cells, we used the 5-stage method, which is known in the art (see, e.g., Lee et al., Nat. Biotechnol. 18:675-679, 2000) and is useful for distinguishing each stage of developmental progression of ES cells. The mouse blastocyst-derived ES cell lines D3 and J1 were propagated and maintained according to methods well-known in the art (see, e.g., Deacon et al., Exp. Neurol., 149:28-41, 1998, and Chung et al., Stem Cells, 20:139-145, 2002). The mouse ES cells were generated as embryoid bodies (EBs) on nonadherent bacterial dishes for four days in growth medium consisting of DMEM supplemented with 2 mM L-glutamine, 0.001% β-mercaptoethanol, 1× non-essential amino acids (all from Invitrogen), and 10% FBS (Hyclone). The EBs were then plated onto adhesive tissue culture dish surfaces. After 24 hours in culture, selection of nestin-positive cells was performed in serum-free ITSFn medium. […]"}}, "note": "“Also recorded” adds a separate entry of the source."}
{"smiles": "CCN(CC)CCCC(C)Nc1ccnc2cc(Cl)ccc12", "note": "(stereo not shown) [Chloroquine diphosphate, chloroquine diphosphate]", "values": [{"measurement": "Luciferase activity compared to control with DMSO, preliminary screening", "setting": "Nurr1; 2.6-TH promoter", "result": "apparent increase in luciferase activity"}]}
{"smiles": "O=C(OCC(O)CO)c1ccccc1Nc1ccnc2cc(Cl)ccc12", "note": "(stereo not shown) [Glafenine (11D), glafenine]", "values": [{"measurement": "Hit identification in repeated primary screening (luciferase activity)", "setting": "Nurr1", "result": "hit candidates"}, {"measurement": "Hit identification in secondary screening (luciferase activity)", "setting": "GAL4 DBD-Nurr1 LBD", "result": "identified as hit candidate compounds; also recorded: hit candidates"}]}
{"smiles": "CCN(CC)Cc1cc(Nc2ccnc3cc(Cl)ccc23)ccc1O", "note": "[Amodiaquine (4E), amodiaquine]", "values": [{"measurement": "Hit identification in repeated primary screening (luciferase activity)", "setting": "Nurr1", "result": "hit candidates"}, {"measurement": "Hit identification in secondary screening (luciferase activity)", "setting": "GAL4 DBD-Nurr1 LBD; listed as Amodiaquine", "result": "identified as hit candidate compounds"}, {"measurement": "Hit identification in secondary screening (luciferase activity)", "setting": "GAL4 DBD-Nurr1 LBD; listed as amodiaquine", "result": "hit candidates"}, {"measurement": "Number of TH+ cells during in vitro ES cell differentiation, in comparison with the control DMSO", "setting": "[1]", "result": "increased the number of TH+ cells"}]}
